Measurements as given in patent US12594259B2, “Treatment regimen for the treatment of neurological diseases or conditions” (ACCURE THERAPEUTICS, S.L., priority 2019, dated 2026).
“Also recorded” adds a separate entry of the source. Like-named read-outs stand apart in the source and are kept apart here.

Key:
[1] = Plasma pharmacokinetics of BN201 in rats (LC-MS/MS, WinNonlin); assay type: in vivo, Sprague Dawley Rat; conditions: 7 doses, Mean ± SEM; for Vd: iv, 25 mg/kg; for AUC(0-inf) / AUC(0-t) / Cmax / Tmax / half-life / AUC_%Extrap (obs): rat plasma
Experimental: (§1) • Receipt of animals (Male Sprague Dawley Rats, Age: 12-13 weeks, Body weight range at the time of study initiation: 306.8 — 385.2 g) and acclimatization of animals for a period of at least one week • Day 0: Administration of Lysolecithin in optic nerve • Administration of test compound (BN201) daily (Day 0 to day 6=7 doses in total) intra-peritoneally (IP) at various doses (10 mg/Kg, 25 mg/Kg, 70 mg/Kg) and Intravenously (infusion 25 mg/Kg) over 2 h for block1. • On day 6, Sampling of blood from block1 for plasma at predetermined time points (8-9 time points) for PK and tissue collection (Eye and optic nerve) for histopathological assessment. • Determination of plasma levels of BN201 by LC-MS/MS • Determination of Pharmacokinetic Parameters of BN201 by WinNonlin Analysis • Test compound administration (IP@10 & 25 mg/Kg) once daily (Day 0 to day 6=7 doses in total) for block2; Tissue collection (Eye and optic nerve collection during termination of the study) on day 14, and 28 for histopathological assessment. 3. Animal Conditioning
(§2) • Group 1 and 2 served as sham and pathological control respectively and only saline was administered • Test compound was delivered once at various doses (as mentioned above) through IP or IV infusion in the respective groups. The first dosage was given 1 hour after Lysolecithin injection and repeated once/day until the end of the experiment • On day 6, blood was collected at various time points after administration of test item for drug concentration measurement: • Group 3-5 (IP groups): Pre-dose, 0.25, 0.5, 1, 4, 8 h, 12 h & 24 h (8 time points) • Group 6 (IV Infusion group): Pre-dose, then the following times post infusion: Oh (end of the infusion), 0.25 h, 0.5 h, 1 h, 4 h, 8 h, 12 h & 24 h (9 time points) • ˜200 μL of blood per time point was collected from Jugular vein for all the time points in K2EDTA blood collection tubes and stored at 4° C. until plasma separation within 30 minutes. After plasma separation, all the plasma samples were stored in two aliquots at −80° C. until the completion of all the time points. Further, one aliquot of plasma samples was submitted together to the DMG/KG for drug concentration analysis. 9. Observation and Readouts 9.1 Body weight
Study samples were processed by protein precipitation method using cold acetonitrile. In brief, 10 μL of plasma was mixed with 200 μL of acetonitrile containing 100 ng/mL-Verapamil as internal standard. The contents were vortexed to ensure mixing and the precipitated protein was removed by centrifugation at 4000 rpm for 15 minutes at 4° C. The supernatant was collected and submitted for Bioanalysis.

[2] = tested on: Lysolecithin induced optic neuritis in SD Rats; test: Retinal ganglion cell (RGC) count in lysolecithin induced acute optic neuritis model; assay type: in vivo, Sprague Dawley Rat
Experimental: as §1
(§3) Animals were anesthetized; the shaved skin was disinfected with 75% ethanol. A 1 cm incision was made in the skin above the orbit of an eye. The lacrimal glands and extraocular muscles were resected to expose 3 mm of the optic nerve under an operating microscope. The dura and arachnoid matter around the optic nerve were opened longitudinally. A small amount of dye was placed on the dura to show the microinjection site. This is done to identify the focal lesion for the histology. Microinjection was performed with a glass micropipette attached to a Hamilton syringe. The pipette was inserted into the optic nerve as superficially as possible at 2 mm posterior to the globe, and 0.8 μL of 1% lysolecithin (with 0.02% Evan's Blue) was slowly pressure-injected into the nerve over approximately 30 seconds. The sham control rats (animals without disease) were injected with 0.02% Evan's Blue in 0.8 μL saline without lysolecithin. After the injection, the skin incision was sutured, and antibiotic solution were administered to prevent infection.
as §2
(§4) • Animals were euthanized on Day 7 with CO2 and were perfused transcardially with saline and 4% paraformaldehyde. Optic nerves (from globe to chiasm) and eye were removed and were fixed in 1% paraformaldehyde overnight. Eye from all the animals were collected in Davidson's fixative. • All tissues were processed in an automatic tissue processor and embedded in paraffin. Five-micro meter-thick (5 μm) transverse sections were made at the site of injections (at the place of the dye) using a rotary microtome. • Serial sections of each optic nerve were obtained (4-6 sections). […]

[3] = tested on: Lysolecithin induced optic neuritis in SD Rats; test: Demyelination score (Luxol fast blue stained optic nerve) in lysolecithin induced acute optic neuritis model; assay type: in vivo, Sprague Dawley Rat
Experimental: as §1, §3, §2, §4

[4] = tested on: Lysolecithin induced optic neuritis in SD Rats; test: Axonal loss score (BSS stained optic nerve) in lysolecithin induced acute optic neuritis model; assay type: in vivo, Sprague Dawley Rat
Experimental: as §1, §3, §2, §4

[5] = Body weight in lysolecithin induced acute optic neuritis study; assay type: in vivo, Sprague Dawley Rat; conditions: Blocks 1 & 2, compared to pathological control group
Experimental: Body weight measurement was performed every morning from day 0 to day 7. All animals were observed regularly for clinical signs.

[6] = tested on: Lysolecithin induced optic neuritis in SD Rats; test: Inflammation (H&E stained optic nerve) in lysolecithin induced acute optic neuritis model; assay type: in vivo, Sprague Dawley Rat; conditions: BN201 treatment, conclusions over blocks 1 and 2
Experimental: as §1
Animals were anesthetized; the shaved skin was disinfected with 75% ethanol. […]
• Group 1 and 2 served as sham and pathological control respectively and only saline was administered • Test compound was delivered once at various doses (as mentioned above) through IP or IV infusion in the respective groups. […] Observation and Readouts 9.1 Body weight […]

[7] = tested on: Lysolecithin induced optic neuritis in SD Rats; test: Overall efficacy in lysolecithin induced acute optic neuritis model; assay type: in vivo, Sprague Dawley Rat; conditions: daily IV 25 mg/Kg (2 h infusion) compared to 10, 25 and 70 mg/Kg IP
Experimental: The aim of Block1 was to determine the efficacy of BN201 administered intraperitoneally at various doses (10 mg/Kg, 25 mg/Kg, 70 mg/Kg) and intravenously at 25 mg/Kg in Lysolecithin induced optic neuritis in SD Rats (7 days study).
The aim of Block2 was to determine the efficacy of BN201 in long duration model of lysolecithin induced optic neuritis in SD rats (14 and 28 day study) […]
• Group 1 and 2 served as sham and pathological control respectively and only saline was administered • Test compound was delivered once at various doses (as mentioned above) through IP or IV infusion in the respective groups. […] Observation and Readouts 9.1 Body weight

[8] = Phase 1 trial in healthy volunteers (pharmacokinetics); assay type: in vivo; conditions: humans
[9] = tested on: serum-glucocorticoid (SGK) pathway; conditions: cited from earlier work
[10] = male, Sprague Dawley, IP 10 mg/Kg once daily
[11] = male, Sprague Dawley, IP 25 mg/Kg once daily
[12] = male, Sprague Dawley, IP 70 mg/Kg once daily
[13] = male, Sprague Dawley, IV infusion 25 mg/Kg over 2 h once daily
[14] = BN201 treatment, short term and long term, summary vs untreated groups
[15] = Block 2, day 28, 25 mg/Kg IP day 0 to day 6, vs placebo (p<0.05)

MRT inf ([1]; male, Sprague Dawley, plasma, rat, IV infusion 25 mg/Kg over 2 h once daily): 3 h
clearance ([1]; male, Sprague Dawley, plasma, rat, IV infusion 25 mg/Kg over 2 h once daily, read-out: CLp (converted)): 31.7 mL/min/kg
Vd ([1]; male, Sprague Dawley, rat, plasma, rat, IV infusion 25 mg/Kg over 2 h once daily, read-out: Vd): 15.8 ± 2.2 L/kg
Vd ([1]; male, Sprague Dawley, rat, plasma, rat, IV infusion 25 mg/Kg over 2 h once daily, read-out: Vdss): 5.7 ± 1.2 L/kg
AUC(0-inf) [1, 10]: 6990 ng·h/mL
AUC(0-t) [1, 10]: 6920 ± 385 ng·h/mL
Cmax [1, 10]: 6680 ± 349 ng/mL
Tmax [1, 10]: 0.3 h
half-life [1, 10]: 5.5 ± 0.9 h
AUC(0-inf) [1, 11]: 14700 ± 840 ng·h/mL
AUC(0-t) [1, 11]: 14500 ± 859 ng·h/mL
Cmax [1, 11]: 14400 ± 1540 ng/mL
Tmax [1, 11]: 0.3 h
half-life [1, 11]: 5.8 ± 0.2 h
AUC(0-inf) [1, 12]: 62800 ± 2760 ng·h/mL
AUC(0-t) [1, 12]: 62400 ± 2720 ng·h/mL
Cmax [1, 12]: 34700 ± 2010 ng/mL
Tmax [1, 12]: 0.3 h
half-life [1, 12]: 4.7 ± 0.8 h
AUC(0-inf) [1, 13]: 15400 ± 1810 ng·h/mL
AUC(0-t) [1, 13]: 15100 ± 1780 ng·h/mL
Cmax [1, 13]: 10400 ± 1320 ng/mL
Tmax [1, 13]: 2 h
half-life [1, 13]: 6.2 ± 0.9 h
AUC_%Extrap (obs) ([1]; IP 10 mg/Kg once daily): 1 ± 0.2%
AUC_%Extrap (obs) ([1]; IP 25 mg/Kg once daily): 1 ± 0.3%
AUC_%Extrap (obs) ([1]; IP 70 mg/Kg once daily): 0.5 ± 0.1%
AUC_%Extrap (obs) ([1]; IV infusion 25 mg/Kg over 2 h once daily): 1.6 ± 0.2%
half-life ([8]; human, in vivo): ≤ 8 h
clearance of the drug [8]: quick clearance
drug accumulation [8]: lack of drug accumulation
SMILES: CC(C)CN(CC(=O)N(CCCN1CCCC1=O)CC(N)=O)C(=O)CNCCc1ccccc1F [BN201, [N-(2-(2′-fluorophenyl)ethyl)-glycyl]-[N-(2-methylpropyl)-glycyl]-N-[3-(2′-oxopyrrolidinyl)-propyl]glycinamide]
retinal ganglion cells [2, 14]: significant improvement in retinal ganglion cells
protection against retinal ganglion cell loss ([2]; Block 1, day 7, 25 mg/Kg IP): 48%
protection against retinal ganglion cell loss ([2]; Block 1, day 7, 70 mg/Kg IP): 69%
RGC count ([2]; Block 1, day 7, BN201 treated groups vs pathological control): trend of increased RGC count
RGC count ([2]; Block 1, day 7, IV infusion 25 mg/Kg vs pathological control): statistically significant improvement in RGC count
RGC count [2, 15]: improvements; also recorded: significantly higher
demyelination [3, 14]: reduced; also recorded: significant improvement
protection against demyelination (demyelination score) ([3]; Block 1, day 7, 10 mg/Kg IP): 13%
protection against demyelination (demyelination score) ([3]; Block 1, day 7, 25 mg/Kg IP): 15%
protection against demyelination ([3]; Block 1, day 7, 25 mg/Kg IV infusion): 22%
protection against demyelination (demyelination score) ([3]; Block 1, day 7, 70 mg/Kg IP): 44%
Demyelination score ([3]; Block 2, day 28, 10 mpk IP day 0 to day 6, vs placebo (p<0.05)): significantly lower
Demyelination score ([3]; Block 2, day 28, 25 mpk IP day 0 to day 6, vs placebo (p<0.05)): significantly lower
axonal loss ([4]; BN201 treatment, conclusions over blocks 1 and 2): reduced
protection against axonal loss (axonal loss score) ([4]; Block 1, day 7, 10, 25 and 70 mg/Kg IP): 36-39%
protection against axonal loss ([4]; Block 1, day 7, IV infusion 25 mg/Kg): 62%
Axonal loss score ([4]; Block 2, day 28, 10 mg/Kg IP day 0 to day 6, vs placebo (p<0.05)): significant reduction in axonal loss; also recorded: significantly lower
Axonal loss score [4, 15]: significant reduction in axonal loss; also recorded: significantly lower
protection of axons against injury ([4]; IP or IV, 10 to 70 mg/Kg/day for 6 days, short term (7 days) and long term (up to day 28 post-injury)): able to protect axons against injury
Body weight [5]: did not significantly change the body weight
inflammation [6]: reduced inflammation
protection against optic neuritis [7]: superior protection against optic neuritis
activation of the SGK pathway, including phosphorylation of Foxo3 or NDRG1 [9]: activates the serum-glucocorticoid (SGK) pathway
